Patent US7799788B2, “Method of treating chronic myelogenous leukemia cells” (University of South Florida, priority 2006, dated 2010)

Columns and labels:
K562 cells = test: Apoptosis by Annexin-V staining (flow cytometry), K562 cells; assay type: cell-based, human; details: 10 nM dasatinib, 48 hours
Procedure: Untreated or drug-treated cells were stained with Annexin-V (Pharmingen, San Diego, Calif.) and propidium iodide (PI) and the percentage of apoptotic cells were determined by flow cytometry. […] The percentage of apoptotic cells was determined by flow cytometry. The combination index (CI) for each drug combination was obtained by median dose effect of Chou and Talalay utilizing the combination index equation within the commercially available software Calcusyn (Biosoft, Ferguson, Mo.).

[1] = tested on: primary IM-resistant CML cells; test: Percentage non-viable cells by trypan blue uptake, primary IM-resistant CML-BC cells; assay type: cell-based, human; details: 48 hours
Procedure: FIG. 6. […] Following this, the percentages of non-viable cells for each drug alone or drug combination were determined by trypan blue uptake in hemocytometer. Values represent the percentage of non-viable cells from each condition as compared to untreated cells.
Primary CML cells. CML cells from the peripheral blood and/or bone marrow of eleven patients who had met the clinical criteria of IM-resistant advanced phase of CML were harvested and purified, as previously described. Informed consents were signed by all patients to allow use of their cells for these experiments, as part of a clinical protocol approved by the University of South Florida Institutional Review Board (IRB).
Cells were stained with trypan blue (Sigma, St. Louis, Mo.).

LAMA-84 cells = test: Apoptosis by Annexin-V staining (flow cytometry), LAMA-84 cells; assay type: cell-based, human; details: 10 nM dasatinib, 48 hours
Procedure: FIG. 1D. […] Following treatment, the percentages of annexin-V-stained apoptotic cells were measured by flow cytometry. Values represent the mean of three experiments±S.E.M.
Bcr-Abl-expressing, CML LAMA-84 and K562 cells were obtained and maintained in culture, as previously described. […] Following these treatments, cells or cell pellets were washed free of the drug(s) prior to the performance of the studies.

[2] = tested on: normal bone marrow progenitor cells (NBMC's); test: Loss of survival of normal bone marrow progenitor cells; assay type: cell-based
BaF3/Bcr-AblE255K cells = test: Apoptosis by Annexin-V staining, BaF3/Bcr-AblE255K cells; details: 2.0 μM vorinostat, 48 hours
Procedure: After treatment, the percentage of Annexin-V-stained apoptotic cells was determined by flow cytometry.
BaF3/Bcr-Abl, BaF3/Bcr-AblE255K, and BaF3/Bcr-AblT315I cells were treated with the indicated concentrations of vorinostat for 48 hours. After treatment, the percentage of Annexin-V-stained apoptotic cells was determined by flow cytometry.
Following treatment, the percentage of annexin-V-stained apoptotic cells was determined by flow cytometry.
Stably expressing cells were then further selected by removal of IL-3.
Untreated or drug-treated cells were stained with Annexin-V (Pharmingen, San Diego, Calif.) and propidium iodide (PI) and the percentage of apoptotic cells were determined by flow cytometry. […] The percentage of apoptotic cells was determined by flow cytometry.

Row | Compound | apoptosis of K562 cells (K562 cells) | loss of cell viability, samples #1 to #9 ([1]; IM-resistant primary CML cells, mutational status not determined) | apoptosis of LAMA-84 cells (LAMA-84 cells) | effect on NBMC ([2]; dasatinib up to 20 nM) | loss of cell viability, all samples including #10 and #11 ([1]; 2.0 μM vorinostat alone) | apoptosis of BaF3/Bcr-AblE255K cells (BaF3/Bcr-AblE255K cells) | loss of survival of NBMC ([2]; 2.0 μM vorinostat, mean of 2 samples)
1 | Cc1nc(Nc2ncc(C(=O)Nc3c(C)cccc3Cl)s2)cc(N2CCN(CCO)CC2)n1 [dasatinib, N-(2-chloro-6-methylphenyl)-2-[[6-[4-(2-hydroxyethyl)-1-piperazinyl]-2-methyl-4-pyrimidinyl]amino]-5-thiazolecarboxamide] | ~50% | induced loss of cell viability in a dose dependent manner | approximately 90% | no effect |  |  | 
2 | O=C(CCCCCCC(=O)Nc1ccccc1)NO [vorinostat, suberoylanilide hydroxamic acid] |  |  |  |  | induced loss of cell viability in all of the samples | approximately 40% | 15.9%
